For 14 molecules, IC50 results are on record in patent publication US20240059703A1 (AMGEN INC., priority 2021, published 2024).

The target of one test is KRAS G12C (Homo sapiens (Human), UniProt P01116, C118A/G12C). In words: 2 h coupled exchange assay. Format: biochemical. Conditions: Avg 2 h Coupled exchange IC50, 2 h compound pre-incubation. How it is done: The term “2 h coupled exchange assay” or “20 h coupled exchange assay” as used herein refers to the assay described in the Section entitled “BIOLOGICAL EVALUATION.”

The subject of test [1] is MIA PaCa-2 (human pancreatic carcinoma) cells. In words: Cell Viability Assay (CellTiter-Glo), MIA PaCa-2. As to conditions: Homo sapiens, MIA PaCa-2, 72 h. Format: cell-based. How it is done: Serially-diluted compound or DMSO was added to the cells, and plates were incubated at 37° C., 5% CO2 for 72 h. Cell viability was measured using a CellTiter-Glo® Luminescent Cell Viability Assay kit (Promega) according to the manufacturer's protocol. The luminescence signal of treated samples was normalized to DMSO control, and data were analyzed using a 4-parameter logistic model to calculate IC50 values.
A general note: In ATP-based viability assays light output follows the ATP content of the culture.

For test [2], the system named is A549 (human lung carcinoma) cells. In words: Cell Viability Assay (CellTiter-Glo), A549. Format: cell-based. As to conditions: Homo sapiens, A549, 72 h. Summed up:
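After a 72 h exposure to serial compound dilutions at 37° C, luminescent ATP content was measured with CellTiter-Glo. The cells were A549 or MIA PaCa-2, seeded at 1.67E+04 cells/mL in RPMI 1640 with 10% serum. Signals were normalized to DMSO controls and IC50 fitted with a 4-parameter logistic model.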

Setting [3] is: SOS-mediated nucleotide exchange.

Broadly, the IC50 is the midpoint of a concentration-inhibition curve. High values mean lower potency, low ones higher potency.

SMILES strings stand for the structures.

KRAS G12C, sequence (P01116 other isoform, or with tags, fused parts or gaps G12C/C118A): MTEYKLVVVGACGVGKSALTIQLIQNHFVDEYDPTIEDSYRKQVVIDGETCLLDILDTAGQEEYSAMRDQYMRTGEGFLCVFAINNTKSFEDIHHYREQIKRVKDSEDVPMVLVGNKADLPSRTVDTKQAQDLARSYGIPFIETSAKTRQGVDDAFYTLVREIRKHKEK

For `C=CC(=O)N1CC2(CCN(c3nc4cc(-c5scnc5COC)ccc4c(-c4ccccc4F)c3C#N)C2)C1` [Example 20-16, 4-(2-fluorophenyl)-7-(4-(methoxymethyl)-1,3-thiazol-5-yl)-2-(2-(2-propenoyl)-2,6-diazaspiro[3.4]octan-6-yl)-3-quinolinecarbonitrile], the figures for the half-inhibitory concentration (IC50) (at KRAS G12C; in test [1]; in test [2]) were 124 nM, 817 nM and 9150 nM, respectively.
Take `C=CC(=O)N1CC2(CCN(c3nc4c(c(-c5c(O)cccc5Cl)c3C#N)CCC(c3scnc3C)=C4)C2)C1` [Example 23-34, 4-(2-chloro-6-hydroxyphenyl)-7-(4-methyl-1,3-thiazol-5-yl)-2-(2-(2-propenoyl)-2,6-diazaspiro[3.4]octan-6-yl)-5,6-dihydro-3-quinolinecarbonitrile]: the results for the IC50 (against KRAS G12C; in test [1]; in test [2]) were 97 nM, 1090 nM and > 5000 nM, respectively.
As to `C=CC(=O)N1CC2(CCN(c3nc4c(c(-c5c(C)ccc6[nH]ncc56)c3C#N)COC3(CCOC3)C4)C2)C1` [Example 13-51, (3R)-4′-(5-methyl-1H-indazol-4-yl)-2′-(2-(2-propenoyl)-2,6-diazaspiro[3.4]octan-6-yl)-4,5,5′,8′-tetrahydrospiro[furan-3,7′-pyrano[4,3-b]pyridine]-3′-carbonitrile|(3S)-4′-(5-methyl-1H-indazol-4-yl)-2′-(2-(2-propenoyl)-2,6-diazaspiro[3.4]octan-6-yl)-4,5,5′,8′-tetrahydrospiro[furan-3,7′-pyrano[4,3-b]pyridine]-3′-carbonitrile], the figures for the IC50 (against KRAS G12C (setting [3]); in test [1]; in test [2]) were 95 nM, 287 nM and > 5000 nM, respectively.
On to `C=CC(=O)N1CC2(CCN(c3nc4c(c(-c5cc(O)ccc5Cl)c3C#N)CCN(C(C)C)C4)C2)C1` [Example 21-9, 4-(2-chloro-5-hydroxyphenyl)-7-(2-propanyl)-2-(2-(2-propenoyl)-2,6-diazaspiro[3.4]octan-6-yl)-5,6,7,8-tetrahydro-1,7-naphthyridine-3-carbonitrile], for which the 50% inhibitory concentration (IC50) is 264 nM against KRAS G12C, > 5000 nM in test [1] and > 5000 nM in test [2].
Take `C=CC(=O)N1CC2(CCN(c3nc4c(c(-c5c(C)c(Cl)cc6cnn(C)c56)c3C#N)COC(C)(C)C4)C2)C1` [Example 14-92, 4-(5-chloro-1,6-dimethyl-1H-indazol-7-yl)-7,7-dimethyl-2-(2-(2-propenoyl)-2,6-diazaspiro[3.4]octan-6-yl)-7,8-dihydro-5H-pyrano[4,3-b]pyridine-3-carbonitrile]: the IC50 is 28 nM on KRAS G12C, 9 nM in test [1] and > 5000 nM in test [2].
In the case of `C=CC(=O)N1CC2(CCN(c3nc4c(c(-c5cc(O)ccc5Cl)c3C#N)CCN(C[C@@H]3CCCN3C)C4)C2)C1` [Example 21-28, 4-(2-chloro-5-hydroxyphenyl)-7-(((2S)-1-methyl-2-pyrrolidinyl)methyl)-2-(2-(2-propenoyl)-2,6-diazaspiro[3.4]octan-6-yl)-5,6,7,8-tetrahydro-1,7-naphthyridine-3-carbonitrile], the half-inhibitory concentration (IC50) against KRAS G12C is 473 nM; in test [1], 314 nM; in test [2], > 25000 nM.
On to `C=CC(=O)N1CC2(CCN(c3nc4c(c(-c5cccc6c5NCCC6)c3C)CCN(C(C)C)C4)C2)C1` [Example 18-5, 1-(6-(3-methyl-7-(2-propanyl)-4-(1,2,3,4-tetrahydro-8-quinolinyl)-5,6,7,8-tetrahydro-1,7-naphthyridin-2-yl)-2,6-diazaspiro[3.4]octan-2-yl)-2-propen-1-one], for which the results for the IC50 (on KRAS G12C; in test [1]; in test [2]) were 990 nM, 546 nM and 15300 nM, respectively.
As for `C=CC(=O)N1CC2(CCN(c3nc4c(c(-c5ccccc5Cl)c3C#N)CC[C@@H](c3ccnn3C)C4)C2)C1` [Example 13-20, (7R)-4-(2-chlorophenyl)-7-(1-methyl-1H-pyrazol-5-yl)-2-(2-(2-propenoyl)-2,6-diazaspiro[3.4]octan-6-yl)-5,6,7,8-tetrahydro-3-quinolinecarbonitrile], the values for the IC50 (against KRAS G12C (setting [3]); in test [1]; in test [2]) were 12 nM, 224 nM and 3000 nM, respectively.
Regarding `C=CC(=O)N1CC2(CCN(c3nc4c(c(-c5cc(OC)ccc5Cl)c3C#N)CCC(c3scnc3C)=C4)C2)C1` [Example 23-31, 4-(2-chloro-5-methoxyphenyl)-7-(4-methyl-1,3-thiazol-5-yl)-2-(2-(2-propenoyl)-2,6-diazaspiro[3.4]octan-6-yl)-5,6-dihydro-3-quinolinecarbonitrile], the IC50 on KRAS G12C was 168 nM; in test [1] it was 2240 nM; in test [2] it was 6720 nM.
`C=CC(=O)N1CC2(CCN(c3nc4c(c(-c5cc(O)cc(Cl)c5C)c3C)COC(C)(C)C4)C2)C1` [Example 12-2, 1-(6-(4-(3-chloro-5-hydroxy-2-methylphenyl)-3,7,7-trimethyl-7,8-dihydro-5H-pyrano[4,3-b]pyridin-2-yl)-2,6-diazaspiro[3.4]octan-2-yl)prop-2-en-1-one]: the IC50 at KRAS G12C (setting [3]) is 41 nM; in test [1], 38 nM; in test [2], > 5000 nM.
For `C=CC(=O)N1CC2(CCN(c3nc4c(c(-c5c(C)ccc6[nH]ncc56)c3C#N)CCC(C)(C)C4)[C@@H]2CF)C1` (stereo in doubt) [Example 13-79, (M)-2-((5R)-5-(fluoromethyl)-2-(2-propenoyl)-2,6-diazaspiro[3.4]octan-6-yl)-7,7-dimethyl-4-(5-methyl-1H-indaazol-4-yl)-5,6,7,8-tetrahydro-3-quinolinecarbonitrile and (P)-((5S)-5-(fluoromethyl)-2-(2-propenoyl)-2,6-diazaspiro[3.4]octan-6-yl)-7,7-dimethyl-4-(5-methyl-1H-indazol-4-yl)-5,6,7,8-tetrahydro-3-quinolinecarbonitrile] the same measures were 433 nM, 8240 nM and 7450 nM.
For `C=CC(=O)N1CC2(CCN(c3nc4c(c(-c5cccc6sc(N)nc56)n3)CCCC4)C2)C1` [Example 1-23, 1-(6-(4-(2-amino-1,3-benzothiazol-4-yl)-5,6,7,8-tetrahydro-2-quinazolinyl)-2,6-diazaspiro[3,4]octan-2-yl)-2-propen-1-one] the same measures were 1220 nM, 5270 nM and 10500 nM.
As to `C=CC(=O)N1CC2(CCN(c3nc4c(c(-c5cc(O)ccc5C(F)(F)F)c3C#N)COC(C)(C)C4)C2)C1` [Example 14-86, 4-(5-hydroxy-2-(trifluoromethyl)phenyl)-7,7-dimethyl-2-(2-(2-propenoyl)-2,6-diazaspiro[3.4]octan-6-yl)-7,8-dihydro-5H-pyrano[4,3-b]pyridine-3-carbonitrile], the IC50 against KRAS G12C is 108 nM; in test [1], 418 nM; in test [2], > 5000 nM.
As for `C=CC(=O)N1CC2(CCN(c3nc4c(c(-c5cc(O)ccc5Cl)c3C#N)CN(Cc3scnc3C)C4)C2)C1` [Example 21-12, 4-(2-chloro-5-hydroxyphenyl)-6-((4-methyl-1,3-thiazol-5-yl)methyl)-2-(2-(2-propenoyl)-2,6-diazaspiro[3.4]octan-6-yl)-6,7-dihydro-5H-pyrrolo[3,4-b]pyridine-3-carbonitrile], the IC50 on KRAS G12C was 393 nM; in test [1] it was 5400 nM; in test [2], > 25000 nM.
